In patent US7998965B2, “Glutamate aggrecanase inhibitors” (Wyeth LLC, priority 2005, dated 2011):

Key:
[1] = molecular target: T1, recombinant human catalytic domain of MMP-13 (Homo sapiens, UniProt P45452); assay: In vitro fluorescence assay of MMP-13 activity; assay type: biochemical; conditions: Table 1; unit inferred
T1 construct: catalytic domain of MMP-13 (165 amino acids, residues 104-268, 19 kDa)

[2] = molecular target: T2, purified recombinant human Aggrecanase-2 (Ag2t-Phe628-Strep) (Homo sapiens, UniProt Q9UNA0); assay: In vitro fluorescence screen for Aggrecanase-2 inhibitors; assay type: biochemical; conditions: Table 1; read-out: Agg 2 IC50
T2 construct: the form used is denoted as Ag2t-Phe628-Strep (MW=41,737)
T2 sequence (Q9UNA0 262-628): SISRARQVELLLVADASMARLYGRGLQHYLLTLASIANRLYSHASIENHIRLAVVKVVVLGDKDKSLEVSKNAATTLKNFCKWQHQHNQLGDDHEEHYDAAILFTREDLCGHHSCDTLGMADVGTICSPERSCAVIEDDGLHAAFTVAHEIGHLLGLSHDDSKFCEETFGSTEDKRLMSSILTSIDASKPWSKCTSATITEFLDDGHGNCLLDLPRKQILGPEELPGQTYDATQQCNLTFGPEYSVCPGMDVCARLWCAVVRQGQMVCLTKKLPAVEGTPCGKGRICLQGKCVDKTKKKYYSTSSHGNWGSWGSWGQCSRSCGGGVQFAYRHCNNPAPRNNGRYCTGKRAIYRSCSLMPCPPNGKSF

[3] = test system: bovine articular cartilage treated with Interleukin 1 alpha (IL-1α); assay: Bovine articular cartilage explant cultures: inhibition of degradation of proteoglycan; assay type: cell-based; conditions: inhibitory effect expressed as percentage, concentration not printed
Description: This in vitro procedure was used to evaluate the effect and relative potencies of small molecule compounds to inhibit the degradation of proteoglycan in articular cartilage treated with Interleukin 1 alpha (IL-1α). Treatment of articular cartilage with IL 1α induces expression of a cascade of enzymes that initiates cartilage matrix degradation. This assay was utilized to select small molecule compounds that inhibit the enzyme activity and protects cartilage matrix degradation.
Articular cartilage: bovine metacarpal joints were disinfected with 10% Wescodyne followed by 70% ethanol. 6 mm articular cartilage discs were prepared and rinsed once in PBS and medium, respectively. The discs were cultured in a stirring flask with serum-free medium for 5 days for equilibrium with one medium change. Small molecule compounds: stock solutions of test small molecule compounds (usually at 5 mg/ml) were prepared in DMSO. Working solutions were diluted with DMSO and generally ranged from 0.1 μg/ml to 10 ug/ml. The DMSO stocks were stored at […]. Articular cartilage explant culture medium: DMEM, 2 mM glutamax, 100 U/ml of antibiotic and antimycotic, 50 μg/ml ascorbate and 10 mM Hepes (pH-7.0). Proteoglycan content-Dimethyl methylene blue (DMMB) solution: […] DMMB, 10 ml 100% ethanol, 29.5 ml of 1M NaOH, 3.5 ml of 98% formic acid and water to 1 L. Chondroitin sulphate sodium salt: 1.56-200 ug/ml serial dilutions.
For the explant culture, cartilage discs were cultured in serum-free medium for 48 h or more. Discs were weighed and transferred to a 96-well plate, 1 disc per-well. 0.2 ml of medium containing 5 ng/ml of IL-1 and different concentrations of compounds were added to each well, with 3 wells allocated for each treatment. The medium was collected at days 1, 2, & 3 and replaced accordingly.
For the DMMB assay, conditioned medium (CM) samples were diluted with medium. 10 ul of each standard or diluted sample was added in duplicate into a 96-well-plate and 200 μl of DMMB solution was added into each well. Absorbance at 520 nm was measured for each well. Proteoglycan contents in CM were calculated daily.
The proteoglycan contents are expressed as ug per mg of cartilage. The inhibitory effect of the compounds is expressed as percentage. (See, Tortorella, M. D. et al., Science 1999, 284, 1664-1666).

[4] = molecular target: T3, purified recombinant human Aggrecanase-1 (rAgg1) (Homo sapiens, UniProt O75173); assay: In vitro fluorescence screen for Aggrecanase-1 inhibitors; assay type: biochemical; conditions: Table 1; for IC50: read-out: Agg1 IC50; for Ki: enzyme not given, column follows Agg1 IC50, read-out: Ki
T3 sequence (O75173 213-837): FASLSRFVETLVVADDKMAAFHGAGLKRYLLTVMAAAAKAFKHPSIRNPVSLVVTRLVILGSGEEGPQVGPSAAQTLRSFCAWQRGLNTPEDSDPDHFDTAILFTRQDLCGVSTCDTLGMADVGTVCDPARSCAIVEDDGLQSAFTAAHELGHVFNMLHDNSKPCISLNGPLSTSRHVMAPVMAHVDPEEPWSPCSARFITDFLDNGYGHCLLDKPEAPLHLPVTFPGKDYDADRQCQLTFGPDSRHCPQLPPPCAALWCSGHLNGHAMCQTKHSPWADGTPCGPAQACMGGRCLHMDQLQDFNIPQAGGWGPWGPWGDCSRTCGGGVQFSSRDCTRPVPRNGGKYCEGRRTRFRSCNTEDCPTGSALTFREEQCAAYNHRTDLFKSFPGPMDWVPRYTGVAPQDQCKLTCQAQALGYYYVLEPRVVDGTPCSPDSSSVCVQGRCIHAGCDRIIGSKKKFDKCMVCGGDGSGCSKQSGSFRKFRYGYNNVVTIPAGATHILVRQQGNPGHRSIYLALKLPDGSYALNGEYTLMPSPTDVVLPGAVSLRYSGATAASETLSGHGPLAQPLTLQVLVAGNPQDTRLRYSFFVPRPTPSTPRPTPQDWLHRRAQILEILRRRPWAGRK

MMP-1 = molecular target: T4, MMP-1 (Homo sapiens, UniProt P03956); assay: MMP-1 of Table 1; assay type: biochemical; conditions: for IC50: unit inferred; for MMP-1: unit not given
T4 sequence (P03956 100-469): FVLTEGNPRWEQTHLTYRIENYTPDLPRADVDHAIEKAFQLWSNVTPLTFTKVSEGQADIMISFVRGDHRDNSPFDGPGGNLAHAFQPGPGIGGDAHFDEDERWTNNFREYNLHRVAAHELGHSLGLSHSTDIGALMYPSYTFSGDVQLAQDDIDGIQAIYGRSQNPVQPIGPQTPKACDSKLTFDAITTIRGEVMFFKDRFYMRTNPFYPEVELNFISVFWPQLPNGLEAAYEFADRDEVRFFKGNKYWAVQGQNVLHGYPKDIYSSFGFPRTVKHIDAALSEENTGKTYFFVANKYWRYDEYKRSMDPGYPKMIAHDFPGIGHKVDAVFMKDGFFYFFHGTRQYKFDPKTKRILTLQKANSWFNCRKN

recombinant human MMP-2 = molecular target: T5, recombinant human MMP-2 (Homo sapiens, UniProt P08253); assay: In vitro fluorescence assay of MMP-2 activity
T5 sequence (P08253 110-660): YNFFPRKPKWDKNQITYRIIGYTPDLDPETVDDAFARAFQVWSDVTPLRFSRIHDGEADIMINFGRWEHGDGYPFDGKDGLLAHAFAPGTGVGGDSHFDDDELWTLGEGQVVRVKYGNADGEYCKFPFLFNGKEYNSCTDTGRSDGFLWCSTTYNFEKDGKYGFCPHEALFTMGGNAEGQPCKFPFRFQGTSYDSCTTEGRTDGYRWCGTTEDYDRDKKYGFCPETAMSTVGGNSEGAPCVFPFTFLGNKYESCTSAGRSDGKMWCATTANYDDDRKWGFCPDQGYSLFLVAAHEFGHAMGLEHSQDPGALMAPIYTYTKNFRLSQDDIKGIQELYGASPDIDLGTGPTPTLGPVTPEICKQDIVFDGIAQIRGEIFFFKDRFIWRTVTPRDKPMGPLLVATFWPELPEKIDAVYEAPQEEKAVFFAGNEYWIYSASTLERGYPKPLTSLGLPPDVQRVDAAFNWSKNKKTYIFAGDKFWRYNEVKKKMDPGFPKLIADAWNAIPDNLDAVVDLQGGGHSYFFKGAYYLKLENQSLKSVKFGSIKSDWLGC

[5] = molecular target: T6, recombinant human catalytic domain of MMP-14 (Homo sapiens, UniProt P50281); assay: In vitro fluorescence assay of MMP-14 activity; assay type: biochemical; conditions: Table 1; unit inferred
T6 construct: 177 amino acids corresponding to Tyr89-Gly265 of mature human enzyme; purchased Chemicon International, Inc. CC1041

[6] = Table 1, first of two columns headed bovine
[7] = Table 1, second of two columns headed bovine

Row | SMILES | IC50 [1] | IC50 [2] | bovine [3, 6] | bovine [3, 7] | IC50 [4] | IC50 (MMP-1) | IC50 (recombinant human MMP-2) | IC50 [5] | Ki [4] | MMP-1 (MMP-1)
1 | O=C(O)CC[C@H](NC(=O)c1ccc(-c2ccccc2)cc1)C(=O)NCc1ccc2c(c1)OCO2 [Example 7, N^1-(1,3-benzodioxol-5-ylmethyl)-N^2-(1,1′-biphenyl-4-ylcarbonyl)-L-α-glutamine] | ~13 µM | 1.8 µM | 61% | 28% | 0.15 µM | > 100 µM | 3 µM | ~13 µM |  | 
2 | O=C(O)CC[C@H](NC(=O)c1ccc(-c2ccccc2)cc1)C(=O)NC1CCCCC1 [Example 8A, N^2-(1,1′-biphenyl-4-ylcarbonyl)-N^1-cyclohexyl-L-α-glutamine] | ~40 µM | 0.9 µM | 75% | 29% | 0.15 µM | > 100 µM | 4.4 µM | ~25 µM |  | 
3 | O=C(O)CC[C@H](NC(=O)c1ccc(-c2ccccc2)cc1)C(=O)NC1CC1 [Example 8B, N^2-(1,1′-biphenyl-4-ylcarbonyl)-N^1-cyclopropyl-L-α-glutamine] | ~50 µM | 1.9 µM | 54% | 22% | 0.46 µM | > 100 µM | 5.6 µM | ~25 µM |  | 
4 | CCCCNC(=O)[C@H](CCC(=O)O)NC(=O)c1ccc(-c2ccccc2)cc1 [Example 8C, N^2-(1,1′-biphenyl-4-ylcarbonyl)-N^1-butyl-L-α-glutamine] | ~50 µM | 1.2 µM | 68% | 34% | 0.11 µM | > 100 µM | 6 µM | ~25 µM |  | 
5 | COc1cc(CNC(=O)[C@H](CCC(=O)O)NC(=O)c2ccc(-c3ccccc3)cc2)cc(OC)c1 [Example 8CC, N^2-(1,1′-biphenyl-4-ylcarbonyl)-N^1-(3,5-dimethoxybenzyl)-L-α-glutamine] | ~22 µM | 0.121 µM | 94% | 71% | 0.022 µM |  | 5.65 µM | ~25 µM | 0.019 µM | no inh
6 | O=C(O)CC[C@H](NC(=O)c1ccc(-c2ccccc2)cc1)C(=O)NCc1ccc(F)cc1 [Example 8D, N^2-(1,1′-biphenyl-4-ylcarbonyl)-N^1-(4-fluorobenzyl)-L-α-glutamine] | ~25 µM |  | 67% | 27% | 0.22 µM | > 100 µM | 4.4 µM | 17 µM |  | 
7 | Cc1ccc(CNC(=O)[C@H](CCC(=O)O)NC(=O)c2ccc(-c3ccccc3)cc2)cc1C [Example 8DD, N^2-(1,1′-biphenyl-4-ylcarbonyl)-N^1-(3,4-dimethylbenzyl)-L-α-glutamine] | ~22 µM | 0.93 µM | 89% | 50% | 0.094 µM |  | 4.58 µM | 16.2 µM |  | no inh
8 | O=C(O)CC[C@H](NC(=O)c1ccc(-c2ccccc2)cc1)C(=O)NC1CCCCCCC1 [Example 8E, N^2-(1,1′-biphenyl-4-ylcarbonyl)-N^1-cyclooctyl-L-α-glutamine] | ~25 µM | 0.746 µM | 79% | 34% | 0.09 µM | > 200 µM | 3.7 µM | ~25 µM |  | 
9 | COc1ccc(CNC(=O)[C@H](CCC(=O)O)NC(=O)c2ccc(-c3ccccc3)cc2)cc1OC [Example 8F, N^2-(1,1′-biphenyl-4-ylcarbonyl)-N^1-(3,4-dimethoxybenzyl)-L-α-glutamine] | ~22 µM | 0.304 µM | 81% | 56% | 0.03 µM | > 200 µM | 5.63 µM | ~25 µM | 0.012 µM | 
10 | O=C(O)CC[C@H](NC(=O)c1ccc(-c2ccccc2)cc1)C(=O)NC1CCCC1 [Example 8G, N^2-(1,1′-biphenyl-4-ylcarbonyl)-N^1-cyclopentyl-L-α-glutamine] | ~50 µM | 0.614 µM | 76% | 39% | 0.08 µM | > 100 µM | ~50 µM | ~25 µM |  | 
11 | O=C(O)CC[C@H](NC(=O)c1ccc(-c2ccccc2)cc1)C(=O)NC1C2CC3CC(C2)CC1C3 (stereo partly drawn) [Example 8H, N^1-2-adamantyl-N^2-(1,1′-biphenyl-4-ylcarbonyl)-L-α-glutamine] | ~50 µM | 0.266 µM | 85% | 67% | 0.2 µM | > 100 µM | 3.31 µM | ~25 µM |  | 
